Assay results reported in patent US20030139431A1 (priority 2001, published 2003).
Where a name gives a salt, the structure may show the parent alone.

Experiments:
rNPFF1 [1] = target: T1, rNPFF1 (Rattus norvegicus, UniProt Q9EP86); test: Binding affinity at cloned recombinant rat NPFF1 receptor
T1 construct: expressed in transfected cells

rNPFF2 [2] = target: T2, rNPFF2 (Rattus norvegicus, UniProt Q9EQD2); test: Binding affinity at cloned recombinant rat NPFF2 receptor
T2 construct: expressed in transfected cells
T2 sequence (Q9EQD2 whole entry): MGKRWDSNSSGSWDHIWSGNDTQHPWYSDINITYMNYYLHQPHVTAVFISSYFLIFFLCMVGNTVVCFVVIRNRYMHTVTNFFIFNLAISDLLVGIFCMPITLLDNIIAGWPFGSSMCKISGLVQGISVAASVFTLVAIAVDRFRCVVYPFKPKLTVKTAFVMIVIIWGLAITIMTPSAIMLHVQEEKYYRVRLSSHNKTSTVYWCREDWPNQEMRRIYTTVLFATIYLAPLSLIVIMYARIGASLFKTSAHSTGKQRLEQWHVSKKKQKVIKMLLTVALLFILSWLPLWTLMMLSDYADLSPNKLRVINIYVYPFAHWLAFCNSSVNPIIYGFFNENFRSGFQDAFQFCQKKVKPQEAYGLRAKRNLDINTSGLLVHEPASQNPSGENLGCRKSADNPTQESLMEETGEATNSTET

rNPFF1 [3] = target: T1, rNPFF1; test: Functional assay (agonist potency, intrinsic activity) at cloned rat NPFF1 receptor; format: cell-based; settings: for rNPFF1 IA (intrinsic activity): percent of maximum response elicited by neuropeptide FF, rat NPFF1; for EC50: recombinant rat NPFF1
Procedure: (§1) Intrinsic activity of a compound is measured as the percent of maximum response.

rNPFF2 [4] = target: T2, rNPFF2; test: Functional assay (agonist potency, intrinsic activity) at cloned rat NPFF2 receptor; format: cell-based; settings: for rNPFF2 IA (intrinsic activity): percent of maximum response elicited by neuropeptide FF, rat NPFF2; for EC50: recombinant rat NPFF2
Procedure: as §1

hNPFF1 [5] = target: T3, hNPFF1 (Homo sapiens, UniProt Q9GZQ6); test: Binding affinity at cloned recombinant human NPFF1 receptor
T3 construct: expressed in transfected cells
T3 sequence (Q9GZQ6 whole entry): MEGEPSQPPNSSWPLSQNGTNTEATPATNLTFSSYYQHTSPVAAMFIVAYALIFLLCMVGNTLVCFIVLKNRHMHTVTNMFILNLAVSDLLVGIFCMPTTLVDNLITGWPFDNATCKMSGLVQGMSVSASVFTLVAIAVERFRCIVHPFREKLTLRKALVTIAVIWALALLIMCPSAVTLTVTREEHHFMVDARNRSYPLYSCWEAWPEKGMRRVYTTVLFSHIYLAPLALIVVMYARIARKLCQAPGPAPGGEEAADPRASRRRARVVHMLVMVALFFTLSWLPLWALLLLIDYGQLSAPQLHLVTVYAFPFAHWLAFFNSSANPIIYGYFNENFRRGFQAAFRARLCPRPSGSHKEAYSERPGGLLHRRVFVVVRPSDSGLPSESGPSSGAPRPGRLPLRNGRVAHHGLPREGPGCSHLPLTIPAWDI

hNPFF2 [6] = target: T4, hNPFF2 (Homo sapiens, UniProt Q9Y5X5); test: Binding affinity at cloned recombinant human NPFF2 receptor
T4 construct: expressed in transfected cells
T4 sequence (Q9Y5X5 103-522): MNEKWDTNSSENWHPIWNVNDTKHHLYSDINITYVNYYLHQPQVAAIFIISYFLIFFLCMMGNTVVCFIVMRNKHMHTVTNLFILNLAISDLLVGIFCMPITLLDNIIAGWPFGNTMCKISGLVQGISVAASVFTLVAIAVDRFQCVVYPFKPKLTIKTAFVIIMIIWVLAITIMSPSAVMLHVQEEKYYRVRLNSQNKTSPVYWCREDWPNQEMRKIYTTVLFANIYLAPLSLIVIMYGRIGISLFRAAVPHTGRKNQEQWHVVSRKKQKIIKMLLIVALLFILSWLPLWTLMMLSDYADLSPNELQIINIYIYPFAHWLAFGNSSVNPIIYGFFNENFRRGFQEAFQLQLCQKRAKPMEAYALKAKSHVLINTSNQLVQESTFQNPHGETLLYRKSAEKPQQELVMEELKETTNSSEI

hNPFF1 [7] = target: T3, hNPFF1; test: Functional assay (agonist potency, intrinsic activity) at cloned human NPFF1 receptor; format: cell-based; settings: for hNPFF1 IA (intrinsic activity): percent of maximum response elicited by neuropeptide FF, human NPFF1; for EC50: recombinant human NPFF1
Procedure: as §1

hNPFF2 [8] = target: T4, hNPFF2; test: Functional assay (agonist potency, intrinsic activity) at cloned human NPFF2 receptor; format: cell-based; settings: for hNPFF2 IA (intrinsic activity): percent of maximum response elicited by neuropeptide FF, human NPFF2; for EC50: recombinant human NPFF2
Procedure: as §1

[9] = tested on: distention induced contractions of the rat bladder; test: Distension-induced rhythmic contraction (DIRC) model, micturition reflex in anesthetized rats; format: in vivo; settings: i.v.; for duration of inhibition of bladder activity (figure legend): dose not printed in legend
Procedure: The effects of compounds on the micturition reflex were assessed in the “distension-induced rhythmic contraction” (DIRC) model (also called “volume-induced rhythmic contraction” model) in rats, as described in previous publications (36, 38, 40). This model is widely considered to be predictive for the actions of drugs to treat human urge incontinence (also referred to as detrusor instability or unstable bladder). Examples of drugs that are active in this model which also are used therapeutically in humans include oxybutynin and baclofen (40); imipramine and nortriptyline (37); and nifedipine and terodiline (38).
Female Sprague Dawley rats weighing approximately 300 g were anesthetized with subcutaneous urethane (1.2 g/kg) The trachea was cannulated with PE240 tubing to provide a clear airway throughout the experiment. A midline abdominal incision was made and the left and right ureters were isolated. The ureters were ligated distally (to prevent escape of fluids from the bladder) and cannulated proximally with PE10 tubing. The incision was closed using 4-0 silk sutures, leaving the PE10 lines routed to the exterior for the elimination of urine. The bladder was canulated via the transurethral route using PE50 tubing inserted 2.5 cm beyond the urethral opening. This cannula was secured to the tail using tape and connected to a pressure transducer. To prevent leakage from the bladder, the cannula was tied tightly to the exterior urethral opening using 4-0 silk.
To initiate the micturition reflex, the bladder was first emptied by applying pressure to the lower abdomen, and then filled with normal saline in 100 μL increments (maximum=2 ml) until spontaneous bladder contractions occurred (typically 20-40 mmHg) at a rate of one contraction every 2 to 3 minutes. Once a regular rhythm was established, vehicle (saline) or test compounds were administered i.v. to examine their effects on bladder activity. The effect of a compound which inhibited the micturition reflex was expressed as its “disappearance time”, defined as the time between successive bladder contractions in the presence of the test compound minus the time between contractions before compound administration.

[10] = rat cloned NPFF receptors, based on IA and Ki

T1 sequence (Q9EP86 whole entry): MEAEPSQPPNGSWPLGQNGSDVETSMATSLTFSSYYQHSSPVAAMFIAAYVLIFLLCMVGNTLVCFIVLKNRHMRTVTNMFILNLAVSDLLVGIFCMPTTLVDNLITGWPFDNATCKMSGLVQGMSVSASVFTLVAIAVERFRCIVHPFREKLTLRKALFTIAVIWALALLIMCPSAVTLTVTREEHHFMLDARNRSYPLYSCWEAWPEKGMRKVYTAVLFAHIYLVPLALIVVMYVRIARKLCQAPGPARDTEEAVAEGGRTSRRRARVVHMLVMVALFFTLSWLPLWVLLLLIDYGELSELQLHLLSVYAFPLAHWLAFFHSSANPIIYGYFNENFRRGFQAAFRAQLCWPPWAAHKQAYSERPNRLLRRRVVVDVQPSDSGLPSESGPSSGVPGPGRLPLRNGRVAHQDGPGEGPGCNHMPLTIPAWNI

| melting point | Ki (rNPFF1 [1]) | Ki (rNPFF2 [2]) | rNPFF1 IA (intrinsic activity) (rNPFF1 [3]) | EC50 (rNPFF1 [3]) | rNPFF2 IA (intrinsic activity) (rNPFF2 [4]) | EC50 (rNPFF2 [4]) | Ki (hNPFF1 [5]) | Ki (hNPFF2 [6]) | hNPFF1 IA (intrinsic activity) (hNPFF1 [7]) | EC50 (hNPFF1 [7]) | hNPFF2 IA (intrinsic activity) (hNPFF2 [8]) | EC50 (hNPFF2 [8]) | classification as agonist or antagonist at NPFF1 (rNPFF1 [3]; [10]) | classification as agonist or antagonist at NPFF2 (rNPFF2 [4]; [10]) | Compound | disappearance time ([9]; 1 mg/kg) | inhibition of distention induced contractions of the rat bladder ([9]; 1 mg/kg) | duration of inhibition of bladder activity (figure legend) [9] | disappearance time ([9]; 3 mg/kg) | inhibition of distention induced contractions of the rat bladder ([9]; 3 mg/kg) |
| --- | --- | --- | --- | --- | --- | --- | --- | --- | --- | --- | --- | --- | --- | --- | --- | --- | --- | --- | --- | --- |
| – | 7 nM | 185 nM | Inactive | > 10000 nM | 32% NPFF | 269 nM | 13 nM | 91 nM | Inactive | > 10000 nM | Inactive | > 10000 nM | – | – | Cc1ccc2c(C)cc(NC(=N)N)nc2c1 [Compound 4006, N-(4,7-dimethyl-2-quinolinyl)guanidine] | – | – | 12 min | 12 min | complete inhibition |
| – | 30 nM | 569 nM | 41% NPFF | 157 nM | 90% NPFF | 259 nM | 40 nM | 460 nM | Inactive | > 10000 nM | 75% NPFF | 1710 nM | – | – | CCCCCc1ccc2nc(NC(=N)N)cc(C)c2c1 [Compound 5002, N-(4-methyl-6-pentyl-2-quinolinyl)guanidine] | – | – | – | – | – |
| – | 532 nM | 4420 nM | 27% NPFF | 440 nM | 57% NPFF | 9990 nM | 152 nM | 1170 nM | Inactive | > 10000 nM | 45% NPFF | 3160 nM | – | – | CCCCCCc1ccc2nc(NC(=N)N)cc(C)c2c1 [Compound 5003, N-(6-hexyl-4-methyl-2-quinolinyl)guanidine] | – | – | – | – | – |
| – | 11 nM | 433 nM | Inactive | > 10000 nM | Inactive | > 10000 nM | 23 nM | 374 nM | Inactive | > 10000 nM | Inactive | > 10000 nM | – | – | Cc1cc(NC(=N)N)nc2ccccc12 [Compound 6001, N-(4-methyl-2-quinolinyl)guanidine] | – | – | – | – | – |

Further lines, the compound ahead of its results:

| Compound | melting point | Ki (rNPFF1 [1]) | Ki (rNPFF2 [2]) | rNPFF1 IA (intrinsic activity) (rNPFF1 [3]) | EC50 (rNPFF1 [3]) | rNPFF2 IA (intrinsic activity) (rNPFF2 [4]) | EC50 (rNPFF2 [4]) | Ki (hNPFF1 [5]) | Ki (hNPFF2 [6]) | hNPFF1 IA (intrinsic activity) (hNPFF1 [7]) | EC50 (hNPFF1 [7]) | hNPFF2 IA (intrinsic activity) (hNPFF2 [8]) | EC50 (hNPFF2 [8]) | classification as agonist or antagonist at NPFF1 (rNPFF1 [3]; [10]) | classification as agonist or antagonist at NPFF2 (rNPFF2 [4]; [10]) | disappearance time ([9]; 1 mg/kg) | inhibition of distention induced contractions of the rat bladder ([9]; 1 mg/kg) | duration of inhibition of bladder activity (figure legend) [9] | disappearance time ([9]; 3 mg/kg) | inhibition of distention induced contractions of the rat bladder ([9]; 3 mg/kg) |
| --- | --- | --- | --- | --- | --- | --- | --- | --- | --- | --- | --- | --- | --- | --- | --- | --- | --- | --- | --- | --- |
| Cc1nc(NC(=N)N)nc2cc(OCc3ccccc3)ccc12 (as salt: salt) [Compound 1006, N-[7-(benzyloxy)-4-methyl-2-quinazolinyl]guanidine] | 215 to 217 °C (dec.) | – | – | – | – | – | – | – | – | – | – | – | – | – | – | – | – | – | – | – |
| Cc1cc2nc(NC(=N)N)nc(C)c2cc1O (as salt: salt) [Compound 1017, N-(6-hydroxy-4,7-dimethyl-2-quinazolinyl)guanidine] | 246 to 248 °C (dec.) | – | – | – | – | – | – | – | – | – | – | – | – | – | – | – | – | – | – | – |
| Cc1nc(NC(=N)N)nc2cc(C(C)(C)C)ccc12 [Compound 1022, N-[7-(tert-butyl)-4-methyl-2-quinazolinyl]guanidine] | 195 to 198 °C (dec.) | 126 nM | 602 nM | 19% NPFF | 3160 nM | 81% NPFF | 190 nM | – | – | – | – | – | – | – | – | – | – | – | – | – |
| Cc1nc(NC(=N)N)nc2cc(-c3ccccc3)ccc12 [Compound 1023, N-(4-methyl-7-phenyl-2-quinazolinyl)guanidine] | – | 4 nM | 1020 nM | Inactive | > 10000 nM | 35% NPFF | 3160 nM | 228 nM | 2920 nM | Inactive | > 10000 nM | 43% NPFF | 4110 nM | – | – | – | – | – | – | – |
| Cc1nc(NC(=N)N)nc2cc3c(cc12)CCC3 [Compound 1038, N-(4-methyl-7,8-dihydro-6H-cyclopenta[g]quinazolin-2-yl)guanidine] | 295 to 298 °C (dec.) | 95 nM | 602 nM | Inactive | > 10000 nM | 74% NPFF | 48 nM | – | – | – | – | – | – | – | – | – | – | – | – | – |
| CCCCCc1ccc2nc(NC(=N)N)nc(C)c2c1 [Compound 2001, N-(4-methyl-6-pentyl-2-quinazolinyl)guanidine] | – | 8 nM | 221 nM | 71% NPFF | 242 nM | 103% NPFF | 97 nM | 50 nM | 376 nM | Inactive | – | 84% NPFF | 625 nM | – | – | – | – | – | – | – |
| Cc1ccc2c(C)nc(NC(=N)N)nc2c1 [Compound 3001, N-(4,7-dimethyl-2-quinazolinyl)guanidine] | – | 50 nM | 1220 nM | – | – | – | – | 46 nM | 1720 nM | Inactive | > 10000 nM | Inactive | > 10000 nM | antagonists | antagonists | – | – | – | – | – |
| CCc1ccc2nc(NC(=N)N)cc(C)c2c1 [Compound 4002, N-(6-ethyl-4-methyl-2-quinolinyl)guanidine] | – | 11 nM | 308 nM | Inactive | > 10000 nM | 84% NPFF | 125 nM | 50 nM | 232 nM | Inactive | > 10000 nM | 69% NPFF | 314 nM | – | – | – | – | – | – | – |
| Cc1cc(NC(=N)N)nc2ccc(Cl)cc12 [Compound 4005, N-(6-chloro-4-methyl-2-quinolinyl)guanidine] | – | 25 nM | 282 nM | Inactive | > 10000 nM | 61% NPFF | 389 nM | 24 nM | 123 nM | – | – | – | – | – | – | 35 min | complete inhibition | 35 min | – | – |
